Source: patent publication US8716285B2, “N-hydroxy-benzamids for the treatment of cancer” (Hoffmann-La Roche Inc., priority 2010, dated 2014)

Key:
[1] = target: recombinant human HDAC8 (Homo sapiens (Human), UniProt Q9BY41); test: HDAC8 inhibition: recombinant HDAC8 fluorometric assay; assay type: biochemical; conditions: recombinant human HDAC8, substrate Ac-Arg-His-Lys-Lys(ε-acetyl)-AMC
Experimental: A competitive inhibitory assay of HDAC8 was carried out by using recombinant HDAC8 and a commercial substrate Ac-Arg-His-Lys-Lys(ε-acetyl)-AMC.
Compounds were tested for their ability to inhibit histone deacetylase 8 using an in vitro deacetylation assay. The enzyme source for this assay was recombinant human HDAC8 protein expressed and purified from insect cells. […] The substrate consisted of a commercial product Ac-Arg-His-Lys-Lys(ε-acetyl)-AMC (substrate is available from Cayman Chemical). […] In a detailed procedure, 8 μl of HDAC8 enzyme solution (0.125 μg/μl) was transferred to assay plates (CORNING 3676). 1 μl of half-log diluted compounds were added into wells and incubated for 15 min at rt. After that, 8 μl of substrate solution was transferred to the wells and incubated for 30 min at rt. After deacetylation of the substrate by incubation with HDAC8 enzyme, subsequent exposure to a developing reagent produced a fluorophore that was directly proportional to the level of deacetylation. So 4 μl of developer regent (Cayman 10006394) was added into the wells in the assay plates and incubated for 15 min. The fluorescence signal was measured by a FlexStation3 plate reader (excitation wave length 340-360 nm; emission wave length 440-465 nm). The IC50 was calculated after normalization and curve fitting using XLfit4.0 software. Inhibition %=[Mean(top)−signal(sample)]*100/[Mean(top)−Mean(bottom)].

[2] = tested on: p21 promoter-luciferase construct; test: p21 reporter gene induction in HeLa cells transfected with p21 promoter-luciferase construct; assay type: cell-based; conditions: for p21 RP3: relative gene level of p21 induced compared to MS275 at 3 μM; for p21 RP10: relative level of p21 induced compared to MS275 at 10 μM; for p21 RP30: relative level of p21 induced compared to MS275 at 30 μM
Experimental: As a surrogate for in-cell HDAC1/2/3 inhibition, p21 induction was used as a counterscreen to evaluate the selectivity of the compounds in the present invention toward HDAC6 or HDAC8.
The novel compounds of the present invention were tested for their ability to induce p21 gene expression using a reporter gene assay involving HeLa cells transfected with a p21 promoter-luciferase construct. The p21 promoter contained the Sp1/Sp3 binding site for HDAC but not the upstream p53 binding site. Briefly, the day before transfection, HeLa cells were seeded at 11,000 cells/well in a 96-well culture plate and incubated at 37° C. in 5% CO2 overnight. A transfection media was prepared prior to transfection according to the following procedure: (1) 5 μl serum-free DMEM, 0.15 μl Fugene 6 reagent, 40 ng p21-luc, 10 ng GFP were mixed gently and incubated at rt for 30 minutes; (2), then 98 μl DMEM (with 10% FBS, 1% penicillin and streptomycin) was added to the DNA: Fugene 6 reagent complex and mixed gently. For transfection, the medium was removed and replaced with 100 μl/well transfection media which was prepared according to the procedure above. After incubating the cells for 24 hours at 37° C. in 5% CO2, fresh media and test compounds were added to the wells and the cells further incubated for 15 hours at 37° C. in 5% CO2. Cells were lysed by adding 80 μl/well of a cell culture lysis reagent (Promega). […] 100 μl luciferase assay reagent (Promega) was then added to every 20 μl cell lysate for luminometer detection. […] Induction activity for specific representative compounds can be found in Table 3.

[3] = target: HDAC6 (Homo sapiens (Human), UniProt Q9UBN7); test: Tubulin acetylation cytoblot assay (A549 cells); assay type: cell-based; conditions: 17-18 h, concentration for 50% induction of acetylated tubulin, read-out: Tub-ac EC50
Experimental: Tubulin acetylation is a PD marker for HDAC6 inhibition. The extent of tubulin acetylation represents the inhibitory effect on HDAC6.
Novel compounds were tested for their ability to inhibit HDAC6 using a cell-based deacetylation assay. Tubulin acetylation was detected by the anti-acetylated tubulin antibody (Sigma) and horse radish peroxidase (HRP) conjugated secondary antibody (KangChen Bio. Tech.). […] 20 μl of diluted compound solution was transferred to the cell culture plate and incubated for 17-18 h. After medium removal and fixation by formaldehyde (3.7% paraformaldehyde in TBS), the cells in the plates were treated with 180 μl of −20° C. MeOH and incubated for 5 min at rt. The cell lysis was incubated with 75 μl of primary anti-acetylated tubulin antibody and secondary HRP conjugated antibody solution (1:750 anti-acetylated tubulin, 1:750 HRP conjugated anti-mouse IgG in antibody dilution buffer not containing sodium azide) for 4 h at 4° C. By adding the HRP substrate, enhanced chemiluminescence (ECL) reagent (GE Healthcare) generated luminescence corresponding to the level of tubulin acetylation. So that 75 μl of ECL was added into the wells and the luminescence from each well was immediately quantified by the plate reader. Based on the luminescence reading, the IC50s against HDAC6 of the tested compounds were calculated by plotting the curve with XLfit4.0 software. Inhibition %=[signal(sample)−Mean(bottom)]*100/[Mean(top)−Mean(bottom)]

Chain of HDAC6 (Q9UBN7 whole entry): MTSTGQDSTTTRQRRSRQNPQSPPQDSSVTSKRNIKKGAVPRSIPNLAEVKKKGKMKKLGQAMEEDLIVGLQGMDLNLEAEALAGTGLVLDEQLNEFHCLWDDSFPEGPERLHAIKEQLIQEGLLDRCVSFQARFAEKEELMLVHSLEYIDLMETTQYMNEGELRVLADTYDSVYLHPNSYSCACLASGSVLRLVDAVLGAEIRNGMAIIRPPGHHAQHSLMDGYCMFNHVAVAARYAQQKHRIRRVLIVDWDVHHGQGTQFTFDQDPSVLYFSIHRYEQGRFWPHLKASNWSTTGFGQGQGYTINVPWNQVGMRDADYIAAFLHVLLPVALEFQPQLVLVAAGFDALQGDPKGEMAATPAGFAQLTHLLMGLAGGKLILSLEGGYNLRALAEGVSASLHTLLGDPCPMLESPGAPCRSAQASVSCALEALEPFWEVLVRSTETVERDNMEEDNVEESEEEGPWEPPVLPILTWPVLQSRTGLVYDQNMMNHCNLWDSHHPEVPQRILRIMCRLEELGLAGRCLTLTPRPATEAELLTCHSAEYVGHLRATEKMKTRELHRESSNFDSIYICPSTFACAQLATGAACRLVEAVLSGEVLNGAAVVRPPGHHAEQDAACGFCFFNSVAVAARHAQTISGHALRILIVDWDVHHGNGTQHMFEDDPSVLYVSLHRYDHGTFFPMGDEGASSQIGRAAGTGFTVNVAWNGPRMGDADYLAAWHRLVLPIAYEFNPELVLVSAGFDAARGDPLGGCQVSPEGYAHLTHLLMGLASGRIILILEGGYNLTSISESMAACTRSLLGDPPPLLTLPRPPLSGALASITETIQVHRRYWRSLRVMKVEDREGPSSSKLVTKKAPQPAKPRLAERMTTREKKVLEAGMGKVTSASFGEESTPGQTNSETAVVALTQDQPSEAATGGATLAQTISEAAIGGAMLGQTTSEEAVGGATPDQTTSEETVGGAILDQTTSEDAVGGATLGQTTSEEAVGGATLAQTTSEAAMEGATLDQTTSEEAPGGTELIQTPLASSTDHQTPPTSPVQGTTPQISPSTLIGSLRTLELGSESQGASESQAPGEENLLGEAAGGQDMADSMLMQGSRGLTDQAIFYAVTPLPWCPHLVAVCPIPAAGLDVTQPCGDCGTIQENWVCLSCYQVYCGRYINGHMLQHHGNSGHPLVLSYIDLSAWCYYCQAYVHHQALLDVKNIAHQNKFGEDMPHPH
Chain of recombinant human HDAC8 (Q9BY41 whole entry): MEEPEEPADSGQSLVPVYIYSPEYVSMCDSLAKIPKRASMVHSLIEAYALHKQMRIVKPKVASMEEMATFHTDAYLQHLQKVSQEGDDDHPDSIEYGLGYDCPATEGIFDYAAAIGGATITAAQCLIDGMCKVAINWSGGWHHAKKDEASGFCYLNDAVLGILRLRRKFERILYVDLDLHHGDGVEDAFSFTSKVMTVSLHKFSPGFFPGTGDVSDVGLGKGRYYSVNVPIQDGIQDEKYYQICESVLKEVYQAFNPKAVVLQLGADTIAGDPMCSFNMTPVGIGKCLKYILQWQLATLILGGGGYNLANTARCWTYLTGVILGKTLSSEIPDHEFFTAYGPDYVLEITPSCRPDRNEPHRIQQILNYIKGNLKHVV

Compound	IC50 [1]	EC50 [3]	p21 RP3 [2]	p21 RP10 [2]	p21 RP30 [2]
O=C(NO)c1ccc2c(c1)CC(Nc1ccc(Br)cc1)CC2 (stereo not drawn) [Example 2, 7-(4-bromo-phenylamino)-5,6,7,8-tetrahydro-naphthalene-2-carboxylic acid hydroxyamide]	680 nM	5470 nM	0.26	−0.06	−0.04
O=C(NO)c1ccc2c(c1)CC(Nc1ccc([N+](=O)[O-])cc1)CC2 (stereo not drawn) [Example 3, 7-(4-nitro-phenylamino)-5,6,7,8-tetrahydro-naphthalene-2-carboxylic acid hydroxyamide]	3740 nM	1860 nM	0.08	−0.08	−0.06
O=C(NO)c1ccc2c(c1)CC(Nc1ccccn1)CC2 (stereo not drawn) [Example 5, 7-(Pyridin-2-ylamino)-5,6,7,8-tetrahydro-naphthalene-2-carboxylic acid hydroxyamide]	2900 nM				
O=C(NO)c1ccc2c(c1)CC(Nc1ccc([N+](=O)[O-])cn1)CC2 (stereo not drawn) [Example 6, 7-(5-Nitro-pyridin-2-ylamino)-5,6,7,8-tetrahydro-naphthalene-2-carboxylic acid hydroxyamide]	930 nM	2070 nM	0.18	0.03	−0.01
O=C(NO)c1ccc2c(c1)CC(Nc1nccc(C(F)(F)F)n1)CC2 (stereo not drawn) [Example 8, 7-(4-Trifluoromethyl-pyrimidin-2-ylamino)-5,6,7,8-tetrahydro-naphthalene-2-carboxylic acid hydroxyamide]	300 nM	830 nM	−0.12	−0.06	−0.19
CCOc1cc(C)nc(NC2CCc3ccc(C(=O)NO)cc3C2)n1 (stereo not drawn) [Example 9, 7-(4-Ethoxy-6-methyl-pyrimidin-2-ylamino)-5,6,7,8-tetrahydro-naphthalene-2-carboxylic acid hydroxyamide]	290 nM	1680 nM	−0.21	−0.03	−0.10
Cc1ccc(-c2ccnc(NC3CCc4ccc(C(=O)NO)cc4C3)n2)cc1 (stereo not drawn) [Example 11, 7-(4-p-Tolyl-pyrimidin-2-ylamino)-5,6,7,8-tetrahydro-naphthalene-2-carboxylic acid hydroxyamide]	800 nM	5100 nM	−0.13	−0.18	−0.18
O=C(NO)c1ccc2c(c1)CC(Nc1nccc(-c3ccc(F)cc3)n1)CC2 (stereo not drawn) [Example 12, 7-[4-(4-Fluoro-phenyl)-pyrimidin-2-ylamino]-5,6,7,8-tetrahydro-naphthalene-2-carboxylic acid hydroxyamide]	260 nM	970 nM	0.10	0.00	−0.10
CN(C)c1cccc(-c2ccnc(NC3CCc4ccc(C(=O)NO)cc4C3)n2)c1 (stereo not drawn) [Example 16, 7-[4-(3-Dimethylamino-phenyl)-pyrimidin-2-ylamino]-5,6,7,8-tetrahydro-naphthalene-2-carboxylic acid hydroxyamid]	800 nM	3460 nM	1.50	0.40	0.30
O=C(NO)c1ccc2c(c1)CC(Nc1nccc(-c3ccc(Oc4ccccc4)cc3)n1)CC2 (stereo not drawn) [Example 23, 7-[4-(4-Phenoxy-phenyl)-pyrimidin-2-ylamino]-5,6,7,8-tetrahydro-naphthalene-2-carboxylic acid hydroxyamide]	1440 nM		0.30	0.00	−0.10
O=C(NO)c1ccc2c(c1)CC(Nc1nccc(-c3ccc4ccccc4c3)n1)CC2 (stereo not drawn) [Example 33, 7-(4-Naphthalen-2-yl-pyrimidin-2-ylamino)-5,6,7,8-tetrahydro-naphthalene-2-carboxylic acid hydroxyamide]	3780 nM		0.19	−0.20	−0.25
O=C(/C=C/c1cccnc1)NC1CCc2ccc(C(=O)NO)cc2C1 (stereo not drawn) [Example 37, 7-((E)-3-Pyridin-3-yl-acryloylamino)-5,6,7,8-tetrahydro-naphthalene-2-carboxylic acid hydroxyamide]	990 nM		−0.18	−0.05	
O=C(NO)c1ccc2c(c1)CC(NS(=O)(=O)c1cccc(Cl)c1)CC2 (stereo not drawn) [Example 42, 7-(3-Chloro-benzenesulfonylamino)-5,6,7,8-tetrahydro-naphthalene-2-carboxylic acid hydroxyamide]	160 nM				

Second part, led by results:

IC50 [1]	EC50 [3]	Compound	p21 RP3 [2]	p21 RP10 [2]	p21 RP30 [2]
	4300 nM	O=C(NO)c1cc2c(cc1F)CCC(Nc1ncccn1)C2 (stereo not drawn) [Example 49, 3-Fluoro-7-(pyrimidin-2-ylamino)-5,6,7,8-tetrahydro-naphthalene-2-carboxylic acid hydroxyamide]	0.50	0.08	0.00
	11800 nM	O=C(NO)c1ccc2c(c1)CC(Nc1nccc(-c3cccnc3)n1)CN2 (stereo not drawn) [Example 53]	0.18	0.03	0.02
1460 nM		O=C(NO)c1ccc2c(c1)CC(NS(=O)(=O)c1ccc(Cl)cc1)CN2 (stereo not drawn) [Example 60, 3-(4-Chloro-benzenesulfonylamino)-1,2,3,4-tetrahydro-quinoline-6-carboxylic acid hydroxyamide]	0.46	0.10	0.04
970 nM		O=C(NO)c1ccc2c(c1)CC(NS(=O)(=O)c1cccc(Cl)c1)CN2 (stereo not drawn) [Example 61, 3-(3-Chloro-benzenesulfonylamino)-1,2,3,4-tetrahydro-quinoline-6-carboxylic acid hydroxyamide]	0.21	0.07	0.04
1140 nM		O=C(NO)c1ccc2c(c1)CC(NS(=O)(=O)c1cccc(F)c1)CN2 (stereo not drawn) [Example 62, 3-(3-Fluoro-benzenesulfonylamino)-1,2,3,4-tetrahydro-quinoline-6-carboxylic acid hydroxyamide]	0.13	0.02	0.01
1610 nM		O=C(NO)c1ccc2c(c1)CC(NS(=O)(=O)c1cccc(OC(F)(F)F)c1)CN2 (stereo not drawn) [Example 63, 3-(3-Trifluoromethoxy-benzenesulfonylamino)-1,2,3,4-tetrahydro-quinoline-6-carboxylic acid hydroxyamide]	0.11	0.04	0.01
1220 nM		COc1ccc(S(=O)(=O)NC2CNc3ccc(C(=O)NO)cc3C2)cc1OC (stereo not drawn) [Example 64, 3-(3,4-Dimethoxy-benzenesulfonylamino)-1,2,3,4-tetrahydro-quinoline-6-carboxylic acid hydroxyamide]	−0.02	0.06	0.04
